Reference: US11351178B2, “Selective HDAC6 inhibitors” (ITALFARMACO S.P.A., priority 2017, dated 2022)

Key:
[1] = Stability in human plasma; assay type: in vitro ADME; settings: after 4 hours, 37° C.
Experimental: In order to evaluate the stability to circulating enzymes, test compounds were incubated in human and rat plasma at 37° C. in a thermostated oscillating bath. Each test compound was incubated at μM (50 μM when the samples were analysed by UV/HPLC, 1 or 2 μM when the samples were analysed by LC-MS/MS) concentration for 0, 15, 30 min and 1, 2 and 4 hours. The reaction was stopped placing tubes on ice bath and adding acidified acetonitrile. After centrifugation for 10 minutes at 14000 rpm, an aliquot of the supernatant was diluted with water, filtered with 0.45 μm syringe filters and injected in HPLC-UV or in LC-MS/MS. The percentages of amount remaining at the various times of incubation with respect to initial amount were calculated. The half-life in plasma was also calculated.

[2] = Stability in rat plasma; assay type: in vitro ADME; settings: after 4 hours, 37° C.
Procedure, shortened: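 Compounds incubated at 37° C in rat or human plasma at 50 μM (UV/HPLC) or 1 or 2 μM (LC-MS/MS) for 0–4 h. Reaction stopped with acidified acetonitrile on ice; percent remaining versus initial amount and plasma half-life calculated.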

[3] = test system: B 697 promyelocytic cell line; assay: Cytotoxicity on 697 cell line (CellTiter 96); assay type: cell-based; settings: 72 hours incubation, read-out: 697 TOXICITY
Procedure, shortened: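 Cells seeded (2×10^4/well for 697, 5×10^5/well for PBMCs); compounds added after 24 h at 1–10000 nM (697) or 1.5–10000 nM (PBMCs) and incubated 72 h. Viability read by CellTiter 96 Aqueous One tetrazolium assay of mitochondrial function.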

[4] = Stability to Phase I metabolism in human S9 liver fraction; assay type: in vitro ADME
Experimental: Test compounds were incubated in rat and human liver S9 fraction at 37° C. up to 90 minutes in order to evaluate their stability to Phase I metabolism by hepatic enzymes. […] The reaction was stopped placing samples on ice bath and adding acidified acetonitrile. After centrifugation (10 minutes at 14000 rpm) an aliquot of the supernatant was diluted water, filtered with 0.45 μm regenerated cellulose syringe filters and injected in HPLC-UV or in LC-MS/MS. The percentages of the amount remaining at the various incubation times with respect to the initial amount were calculated. The intrinsic clearance was also calculated.

[5] = Stability to Phase I metabolism in rat S9 liver fraction; assay type: in vitro ADME; settings: after 90 min, 37° C.
Procedure, shortened: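 Compounds were incubated with rat or human liver S9 fraction at 37 °C for up to 90 min. Reactions were quenched on ice with acidified acetonitrile and analysed by HPLC-UV or LC-MS/MS. Percent remaining versus time zero and intrinsic clearance were calculated.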

[6] = test system: peripheral blood mononuclear cells (PBMCs); assay: Cytotoxicity on PBMCs (CellTiter 96); assay type: cell-based; settings: PBMC, 72 h; read-out: PBMC TOXICITY (72 h)
Experimental: Cytotoxic activity was evaluated on B 697 […] cell line for all synthesized compounds and on peripheral blood mononuclear cells (PBMCs) for compounds showing a good potency/selectivity profile.
Cells were seeded in plate (2×10^4 cells per well for 697, 5×10^5 cells per well for PBMCs). The test compounds (concentrations from 1.5 nM to 10000 nM for PBMCs and from 1 nM to 10000 nM for 697) were added after 24 hours and incubated 72 hours. The molecules cytotoxic activity was evaluated using CellTiter 96© Aqueous One Solution Cell Proliferation Assay (Promega), which measures the mitochondria function, following the manufacturer's instructions.

[7] = target: T1, recombinant human HDAC6 (Homo sapiens, UniProt Q9UBN7); assay: Enzymatic screening on recombinant human HDAC6; assay type: biochemical; settings: Table 2; read-out: HDAC6 IC50
T1 sequence (Q9UBN7 1-1215): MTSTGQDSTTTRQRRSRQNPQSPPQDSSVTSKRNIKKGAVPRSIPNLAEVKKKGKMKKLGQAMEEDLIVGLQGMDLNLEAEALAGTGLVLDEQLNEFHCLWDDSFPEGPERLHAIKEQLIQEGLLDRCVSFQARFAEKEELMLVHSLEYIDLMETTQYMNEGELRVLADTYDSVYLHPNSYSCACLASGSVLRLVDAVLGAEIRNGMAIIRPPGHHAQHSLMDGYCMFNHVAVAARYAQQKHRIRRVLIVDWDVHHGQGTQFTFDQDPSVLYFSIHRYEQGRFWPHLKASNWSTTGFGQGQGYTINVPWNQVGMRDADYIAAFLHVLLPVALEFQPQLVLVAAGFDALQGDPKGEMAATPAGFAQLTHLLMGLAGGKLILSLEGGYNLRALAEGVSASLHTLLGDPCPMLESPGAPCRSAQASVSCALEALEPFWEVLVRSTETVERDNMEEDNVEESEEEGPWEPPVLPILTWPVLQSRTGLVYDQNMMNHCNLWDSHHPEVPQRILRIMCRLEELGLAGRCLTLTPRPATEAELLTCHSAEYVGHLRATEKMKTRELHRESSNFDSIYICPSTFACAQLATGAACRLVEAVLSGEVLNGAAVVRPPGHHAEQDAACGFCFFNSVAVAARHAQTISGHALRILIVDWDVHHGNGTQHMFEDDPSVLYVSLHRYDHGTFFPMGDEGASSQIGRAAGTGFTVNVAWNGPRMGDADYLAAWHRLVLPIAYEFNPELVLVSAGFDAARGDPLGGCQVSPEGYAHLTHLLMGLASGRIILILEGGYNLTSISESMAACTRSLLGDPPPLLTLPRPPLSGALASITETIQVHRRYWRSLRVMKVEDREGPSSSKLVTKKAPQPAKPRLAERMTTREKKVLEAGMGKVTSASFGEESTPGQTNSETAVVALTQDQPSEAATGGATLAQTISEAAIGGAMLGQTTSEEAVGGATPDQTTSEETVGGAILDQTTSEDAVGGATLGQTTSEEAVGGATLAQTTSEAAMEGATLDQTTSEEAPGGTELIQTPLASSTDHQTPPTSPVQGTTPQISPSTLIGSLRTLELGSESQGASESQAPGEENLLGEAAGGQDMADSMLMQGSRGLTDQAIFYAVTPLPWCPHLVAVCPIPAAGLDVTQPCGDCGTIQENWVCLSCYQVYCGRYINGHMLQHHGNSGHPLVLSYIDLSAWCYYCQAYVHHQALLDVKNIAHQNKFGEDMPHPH
Procedure, shortened: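 Buffer for substrate addition: 25 mM Tris-HCl pH 8, 130 mM NaCl, 0.05% Tween-20, 10% glycerol, substrate 2× concentrated (FdL, FdL-Green or trifluoroacetyl-lysine). Recombinant human HDAC was preincubated with compound at 30 °C beforehand, timing isoform-dependent, and the reaction was likewise run at 30 °C.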

| residual percentage in human plasma [1] | residual percentage in rat plasma [2] | residual percentage in human S9 fraction ([4]; human, 90 min, pH 7.4) | residual percentage in rat S9 fraction [5] | IC50 [7] | Compound | IC50 [3] | IC50 [6] | residual percentage in human S9 fraction ([4]; human liver S9 fraction, after 90 min, 37° C.) |
| --- | --- | --- | --- | --- | --- | --- | --- | --- |
| 97% | 80% | 63% | 58% | 0.013 µM | CCN(CC)Cc1cc(-c2nnc(Sc3c(F)cc(C(=O)NO)cc3F)n2C)c(C)o1 [comp. 213, 4-[[5-[5-(diethylaminomethyl)-2-methyl-3-furyl]-4-methyl-1,2,4-triazol-3-yl]sulfanyl]-3,5-difluoro-benzenecarbohydroxamic acid] | 15.4 µM |  |  |
| 87% | 81% | 81% | 81% | 0.004 µM | CCc1oc(-c2nnc(Sc3c(F)cc(C(=O)NO)cc3F)n2C)cc1CN1CCCC1 [comp. 208, 4-[[5-[5-ethyl-4-(pyrrolidin-1-ylmethyl)-2-furyl]-4-methyl-1,2,4-triazol-3-yl]sulfanyl]-3,5-difluoro-benzenecarbohydroxamic acid] | 15.4 µM |  |  |
| 79% | 89% | 84% | 72% | 0.007 µM | Cn1c(Sc2c(F)cc(C(=O)NO)cc2F)nnc1-c1ccc(CN2CCOCC2)o1 [comp. 204, 3,5-difluoro-4-[[4-methyl-5-[5-(morpholinomethyl)-2-furyl]-1,2,4-triazol-3-yl]sulfanyl]benzenecarbohydroxamic acid] | 15.4 µM |  |  |
| 95% | 63% | 51% | 6% | 0.005 µM | O=C(NO)c1cc(F)c(Cc2nnc(-c3ccccc3)s2)c(F)c1 [compound 198, 3,5-difluoro-N-hydroxy-4-((5-phenyl-1,3,4-thiadiazol-2-yl)methyl)benzamide] |  |  |  |
| 80% | 89% | 95% | 71% | 0.005 µM | CN1CCN(Cc2ccc(-c3nnc(Sc4c(F)cc(C(=O)NO)cc4F)n3C)o2)CC1 [comp. 205, 3,5-difluoro-4-[[4-methyl-5-[5-[(4-methylpiperazin-1-yl)methyl]-2-furyl]-1,2,4-triazol-3-yl]sulfanyl]benzenecarbohydroxamic acid] | 15.4 µM |  |  |

Second part, the compound before the results:

| Compound | residual percentage in human plasma [1] | residual percentage in rat plasma [2] | residual percentage in human S9 fraction ([4]; human, 90 min, pH 7.4) | residual percentage in rat S9 fraction [5] | IC50 [7] | IC50 [3] | IC50 [6] | residual percentage in human S9 fraction ([4]; human liver S9 fraction, after 90 min, 37° C.) |
| --- | --- | --- | --- | --- | --- | --- | --- | --- |
| O=C(NO)c1ccc(Cc2nnc(-c3ccccc3)[nH]2)cc1 [comp. 216, 4-[(5-phenyl-4H-1,2,4-triazol-3-yl)methyl]benzenecarbohydroxamic acid] | 91% | 89% | 84% | 62% |  | 0.288 µM |  |  |
| O=C(NO)c1cc(F)c(Cn2nnc(-c3ncccn3)n2)c(F)c1 [comp. 7] | 93% | 77% |  | 96% |  | 4.19 µM | 10 µM | 89% |
| O=C(NO)c1ccc(Cn2nnnc2-c2ccccc2)cc1 [comp. 215, 4-[(5-phenyltetrazol-1-yl)methyl]benzenecarbohydroxamic acid] | 90% | 57% | 82% | 65% |  | 0.34 µM |  |  |
| CN1CCN(Cc2ccc(-c3nnc(Sc4ccc(C(=O)NO)cc4)n3C)o2)CC1 [comp. 209, 4-[[4-methyl-5-[5-[(4-methylpiperazin-1-yl)methyl]-2-furyl]-1,2,4-triazol-3-yl]sulfanyl]benzenecarbohydroxamic acid] | 77% | 69% | 100% | 84% | 0.011 µM | 15.4 µM |  |  |
| Cn1c(Sc2c(F)cc(C(=O)NO)cc2F)nnc1-c1ccc(CN2CCCCC2)o1 [comp. 212, 3,5-difluoro-4-[[4-methyl-5-[5-(1-piperidylmethyl)-2-furyl]-1,2,4-triazol-3-yl]sulfanyl]benzenecarbohydroxamic acid] | 83% | 81% | 75% | 60% | 0.006 µM | 15.4 µM |  |  |
| O=C(NO)c1ccc(Cn2nnc(-c3ccccc3)n2)cc1 [comp. 214, 4-[(5-phenyltetrazol-2-yl)methyl]benzenecarbohydroxamic acid] | 92% | 60% | 73% | 9% | 0.003 µM | 0.409 µM |  |  |
